This passage reports MIC50 results from paper PMC6152416, “Pharmacological and Toxicological Screening of Novel Benzimidazole-Morpholine Derivatives as Dual-Acting Inhibitors” (Molecules : A Journal of Synthetic Chemistry and Natural …, 2017).

The subject of the experiment is Pseudomona aeuroginosa ATCC 27853. Nature of the experiment: Antimicrobial broth microdilution (CLSI M07-A9). Type of experiment: cell-based. The note with it: Pseudomona aeuroginosa [sic] ATCC 27853. On the procedure:
Microbiological studies were performed according to CLSI reference M07-A9 broth microdilution method for bacterial strains and EUCAST definitive method EDef 7.1 for Candida species. Synthesized compounds were tested for their in vitro growth inhibitory activity against Escherichia coli ATCC 35218, Escherichia coli ATCC 25922, Staphylococcus aureus, ATCC 25923, Pseudomona aeuroginosa ATCC 27853, Enterococcus faecalis ATCC29212, Klebsiella pneumoniae ATCC700603 Listeria monocytogenes ATCC7644, Candida albicans ATCC90028, Candida glabrata ATCC 90030, Candida krusei ATCC 6258, Candida parapsilosis ATCC 22019.
The cultures were obtained from Mueller-Hinton broth (Difco) for the bacterial strains and the yeasts were maintained in Roswell Park Memorial Institute (RPMI) medium, after an overnight incubation at 37 °C for both. The inocula of the test microorganisms were adjusted to match an equivalent turbidity of a 0.5 McFarland standard, which was determined using a spectrophotometer; the final inoculum size was determined to be 0.5–2.5 × 10^5 cfu/mL for antibacterial and antifungal assays. The tests were carried out for both mediums at pH = 7 and two-fold serial dilutions were applied. The last well on the microplates, which was containing only the inoculated broth, was kept as control, and the last well with no growth of microorganism was recorded to represent the minimum inhibitory concentration (MIC50) in μg/mL. For both of the antibacterial and antifungal assays, the test compounds and reference drugs were firstly dissolved in DMSO, and further dilutions were performed to the desired concentrations of 1000, 500, 250, 125, 62.5, 31.25, 15.6, 7.8, 3.9 and 1.95 μg/mL using Mueller–Hinton broth and RPMI medium. The completed plates were incubated for 24 h, and at the end of the incubation, resazurin (20 µg/mL) was added into each well to control the growth in the wells. Final plates including microorganism strains were incubated for 2 h. MIC50 values were determined using microplate reader at […] wavelengths; MIC50 readings were performed twice for entire compounds. Chloramphenicol and ketoconazole were used as reference drugs.
In general terms: In broth dilution the organism is exposed to a series of concentrations in liquid medium.

Molecules are shown by their SMILES. Values after ≈ are worked out from the molar mass of the structure shown.

The MIC50 is the lowest concentration that inhibits either 50% of growth or 50% of the strains tested, depending on the study. `O=C(N[C@H](CO)[C@H](O)c1ccc([N+](=O)[O-])cc1)C(Cl)Cl` [Chloramphenicol, reference compound] returned an MIC50 of 250 µg/mL (≈ 774 µM).
